# Measured values reported in patent publication US20200223889A1, “Bicyclic Compounds Capable of Binding to Melanocortin 4 Receptor” (Novo Nordisk A/S, priority 2017, published 2020).
# Positions of bridges follow the written chain, without caps; N, C: chain ends. Non-standard residues stand in square brackets, D forms with d. Residues, ends and D or L forms follow the SMILES beside them. Thz = O=C(O)[C@@H]1CSCN1
# Assay: In vivo obese model: DIO mice treated once daily, food intake and body weight
# Protocol: Stimulation of MC4R signaling is reported to modulate energy intake and expenditure in both humans and rodents. In order to test the effect of MC4R agonists on food intake and body weight, diet-induced obese (DIO) mice were treated once daily with compounds to assess weight loss efficacy.
# All animal protocols were approved by an Institutional Animal Care and Use Committee and Ethical Review Committee of Novo Nordisk. Animals were housed according to Novo Nordisk rodent housing standards, and were given ad libitum access to food and water under controlled lighting (12 h:12 h light/dark cycle; lights off 17:00-05:00), temperature (23±2° C.) and relative humidity (50±20%) conditions. Diet-induced obese (DIO) male C57BL/6J mice maintained on a high fat diet (60% kcal fat, 5.24 kcal/gram; RD12492, Research Diets, New Brunswick, N.J., USA) for 22 weeks were obtained from Charles River (France). Upon arrival, the mice were single-housed (one mouse per cage) and allowed to acclimate to their new environment for two weeks prior to the start of treatment.
# Prior to initiation of the study, animals were single-housed and acclimated to handling for 7 days. The DIO mice were distributed into groups (n=8/group) such that statistical variations in the mean and standard deviations of fat mass and body weight were minimized between groups. Animals were dosed once daily, subcutaneously at 16:00 with either vehicle or compound
# Body weight and food intake were measured immediately prior to dosing each day. The average starting body weight of the mice prior to start of treatment was 47.2±0.2 grams.
# [1] = 0.3 μmol/kg once daily s.c., day 1, mean ± SEM
# [2] = 0.3 μmol/kg once daily s.c., day 2, mean ± SEM
# [3] = 0.3 μmol/kg once daily s.c., day 3, mean ± SEM
# [4] = 0.3 μmol/kg once daily s.c., day 4, mean ± SEM
# [5] = 0.3 μmol/kg once daily s.c., day 5, mean ± SEM
# [6] = 0.3 μmol/kg once daily s.c., day 6, mean ± SEM
# [7] = 0.3 μmol/kg once daily s.c., day 7, mean ± SEM
# [8] = 0.3 μmol/kg once daily s.c., day 8, mean ± SEM
# [9] = 0.3 μmol/kg once daily s.c., day 9, mean ± SEM
# [10] = 0.3 μmol/kg once daily s.c., day 10, mean ± SEM
# [11] = 0.3 μmol/kg once daily s.c., day 11, mean ± SEM
# [12] = 0.3 μmol/kg once daily s.c., day 12, mean ± SEM
# [13] = 0.3 μmol/kg once daily s.c., day 13, mean ± SEM
# [14] = 0.3 μmol/kg once daily s.c., day 14, mean ± SEM
# [15] = 0.3 μmol/kg once daily s.c., day 15, mean ± SEM
# [16] = 0.3 μmol/kg once daily s.c., day 16, mean ± SEM
# [17] = 0.3 μmol/kg once daily s.c., day 17, mean ± SEM
# [18] = 0.3 μmol/kg once daily s.c., day 18, mean ± SEM
# [19] = 0.3 μmol/kg once daily s.c., day 19, mean ± SEM
# [20] = 0.3 μmol/kg once daily s.c., day 20, mean ± SEM
# [21] = 1.5 μmol/kg once daily s.c., day 1, mean ± SEM
# [22] = 1.5 μmol/kg once daily s.c., day 2, mean ± SEM
# [23] = 1.5 μmol/kg once daily s.c., day 3, mean ± SEM
# [24] = 1.5 μmol/kg once daily s.c., day 4, mean ± SEM
# [25] = 1.5 μmol/kg once daily s.c., day 5, mean ± SEM
# [26] = 1.5 μmol/kg once daily s.c., day 6, mean ± SEM
# [27] = 1.5 μmol/kg once daily s.c., day 7, mean ± SEM
# [28] = 1.5 μmol/kg once daily s.c., day 8, mean ± SEM
# [29] = 1.5 μmol/kg once daily s.c., day 9, mean ± SEM
# [30] = 1.5 μmol/kg once daily s.c., day 10, mean ± SEM
# [31] = 1.5 μmol/kg once daily s.c., day 11, mean ± SEM
# [32] = 1.5 μmol/kg once daily s.c., day 12, mean ± SEM
# [33] = 1.5 μmol/kg once daily s.c., day 13, mean ± SEM
# [34] = 1.5 μmol/kg once daily s.c., day 14, mean ± SEM
# [35] = 1.5 μmol/kg once daily s.c., day 15, mean ± SEM
# [36] = 1.5 μmol/kg once daily s.c., day 16, mean ± SEM
# [37] = 1.5 μmol/kg once daily s.c., day 17, mean ± SEM
# [38] = 1.5 μmol/kg once daily s.c., day 18, mean ± SEM
# [39] = 1.5 μmol/kg once daily s.c., day 19, mean ± SEM
# [40] = 1.5 μmol/kg once daily s.c., day 20, mean ± SEM
smiles,measurement,setting,value
"C[C@@H]1NC(=O)[C@H](CCCCN)NC(=O)[C@@H]2CSSC[C@H](NC(=O)[C@H](Cc3c[nH]c4ccccc34)NC(=O)[C@H](C)NC(=O)[C@@H](CCCCN)NC1=O)C(=O)N1CSC[C@H]1C(=O)N[C@@H](Cc1c[nH]cn1)C(=O)N[C@H](Cc1ccccc1)C(=O)N[C@@H](Cc1c[nH]cn1)C(=O)N[C@@H](Cc1c[nH]c3ccccc13)C(=O)N2 [Chem. 114, c[c[Cys-THAZ-His-D-Phe-His-Trp- Cys]-Lys-Ala-D-Lys-Ala-Trp]] (cyclo(AWC[Thz]H[dF]HWCKA[dK]); disulfide 3-9)","Daily food intake, kcals","0.3 μmol/kg once daily s.c., day 0, mean ± SEM",13.4 ± 0.6 kcals
same,"Cumulative food intake, kcals",[1],7.7 ± 0.5 kcals
same,"Daily food intake, kcals",[1],7.7 ± 0.5 kcals
same,"Relative body weight, % initial",[1],96 ± 0.3 % initial
same,"Cumulative food intake, kcals",[2],13.6 ± 1.5 kcals
same,"Daily food intake, kcals",[2],6 ± 1.2 kcals
same,"Relative body weight, % initial",[2],94.2 ± 0.3 % initial
same,"Cumulative food intake, kcals",[3],23.5 ± 2.1 kcals
same,"Daily food intake, kcals",[3],9.9 ± 0.9 kcals
same,"Relative body weight, % initial",[3],93.6 ± 0.5 % initial
same,"Cumulative food intake, kcals",[4],34.3 ± 2.5 kcals
same,"Daily food intake, kcals",[4],10.7 ± 0.7 kcals
same,"Relative body weight, % initial",[4],91.8 ± 0.7 % initial
same,"Cumulative food intake, kcals",[5],44.8 ± 2.9 kcals
same,"Daily food intake, kcals",[5],10.5 ± 0.8 kcals
same,"Relative body weight, % initial",[5],91.1 ± 0.6 % initial
same,"Cumulative food intake, kcals",[6],55.6 ± 3.7 kcals
same,"Daily food intake, kcals",[6],10.8 ± 0.9 kcals
same,"Relative body weight, % initial",[6],89.9 ± 0.9 % initial
same,"Cumulative food intake, kcals",[7],67.7 ± 4.3 kcals
same,"Daily food intake, kcals",[7],12.1 ± 0.9 kcals
same,"Relative body weight, % initial",[7],89.5 ± 0.9 % initial
same,"Cumulative food intake, kcals",[8],78.8 ± 4.5 kcals
same,"Daily food intake, kcals",[8],11.1 ± 0.6 kcals
same,"Relative body weight, % initial",[8],88.6 ± 0.9 % initial
same,"Cumulative food intake, kcals",[9],90.8 ± 4.7 kcals
same,"Daily food intake, kcals",[9],12.1 ± 0.6 kcals
same,"Relative body weight, % initial",[9],88.6 ± 0.9 % initial
same,"Cumulative food intake, kcals",[10],103.2 ± 5.3 kcals
same,"Daily food intake, kcals",[10],12.3 ± 0.8 kcals
same,"Relative body weight, % initial",[10],87.7 ± 1.1 % initial
same,"Cumulative food intake, kcals",[11],114.2 ± 5.8 kcals
same,"Daily food intake, kcals",[11],11 ± 0.7 kcals
same,"Relative body weight, % initial",[11],88.2 ± 1.1 % initial
same,"Cumulative food intake, kcals",[12],127.6 ± 6.1 kcals
same,"Daily food intake, kcals",[12],13.4 ± 0.6 kcals
same,"Relative body weight, % initial",[12],87.2 ± 1.1 % initial
same,"Cumulative food intake, kcals",[13],140.8 ± 6.4 kcals
same,"Daily food intake, kcals",[13],13.2 ± 0.7 kcals
same,"Relative body weight, % initial",[13],87.1 ± 1.2 % initial
same,"Cumulative food intake, kcals",[14],153.9 ± 6.9 kcals
same,"Daily food intake, kcals",[14],13.2 ± 0.7 kcals
same,"Relative body weight, % initial",[14],87.3 ± 1.3 % initial
same,"Cumulative food intake, kcals",[15],167.5 ± 7.5 kcals
same,"Daily food intake, kcals",[15],13.6 ± 0.7 kcals
same,"Relative body weight, % initial",[15],87.4 ± 1.3 % initial
same,"Cumulative food intake, kcals",[16],181.2 ± 7.8 kcals
same,"Daily food intake, kcals",[16],13.7 ± 0.5 kcals
same,"Relative body weight, % initial",[16],87.5 ± 1.3 % initial
same,"Cumulative food intake, kcals",[17],195.8 ± 7.9 kcals
same,"Daily food intake, kcals",[17],14.5 ± 0.5 kcals
same,"Relative body weight, % initial",[17],87.4 ± 1.3 % initial
same,"Cumulative food intake, kcals",[18],211 ± 8.3 kcals
same,"Daily food intake, kcals",[18],15.3 ± 0.6 kcals
same,"Relative body weight, % initial",[18],87.9 ± 1.4 % initial
same,"Cumulative food intake, kcals",[19],225.4 ± 8.7 kcals
same,"Daily food intake, kcals",[19],14.3 ± 0.8 kcals
same,"Relative body weight, % initial",[19],88.6 ± 1.4 % initial
same,"Cumulative food intake, kcals",[20],241.2 ± 8.5 kcals
same,"Daily food intake, kcals",[20],15.9 ± 0.5 kcals
same,"Relative body weight, % initial",[20],88.9 ± 1.3 % initial
same,"reduction in body weight, relative to initial body weight",0.3 μmol/kg once daily subcutaneously,11.1±1.3%
same,"Daily food intake, kcals","1.5 μmol/kg once daily s.c., day 0, mean ± SEM",13.9 ± 1.3 kcals
same,"Cumulative food intake, kcals",[21],5.5 ± 0.8 kcals
same,"Daily food intake, kcals",[21],5.5 ± 0.8 kcals
same,"Relative body weight, % initial",[21],95.1 ± 0.4 % initial
same,"Cumulative food intake, kcals",[22],10.7 ± 1.4 kcals
same,"Daily food intake, kcals",[22],5.2 ± 0.8 kcals
same,"Relative body weight, % initial",[22],93 ± 0.4 % initial
same,"Cumulative food intake, kcals",[23],19.8 ± 2.2 kcals
same,"Daily food intake, kcals",[23],9.1 ± 0.8 kcals
same,"Relative body weight, % initial",[23],92.1 ± 0.6 % initial
same,"Cumulative food intake, kcals",[24],30.5 ± 3.1 kcals
same,"Daily food intake, kcals",[24],10.7 ± 1.2 kcals
same,"Relative body weight, % initial",[24],91.3 ± 0.7 % initial
same,"Cumulative food intake, kcals",[25],41.1 ± 4 kcals
same,"Daily food intake, kcals",[25],10.7 ± 0.9 kcals
same,"Relative body weight, % initial",[25],90.6 ± 0.9 % initial
same,"Cumulative food intake, kcals",[26],51.7 ± 4.6 kcals
same,"Daily food intake, kcals",[26],10.6 ± 0.8 kcals
same,"Relative body weight, % initial",[26],89.6 ± 0.8 % initial
same,"Cumulative food intake, kcals",[27],61.9 ± 5.4 kcals
same,"Daily food intake, kcals",[27],10.2 ± 1 kcals
same,"Relative body weight, % initial",[27],88.6 ± 0.9 % initial
same,"Cumulative food intake, kcals",[28],73.8 ± 5.8 kcals
same,"Daily food intake, kcals",[28],11.9 ± 0.7 kcals
same,"Relative body weight, % initial",[28],87.8 ± 0.8 % initial
same,"Cumulative food intake, kcals",[29],86.2 ± 6.4 kcals
same,"Daily food intake, kcals",[29],12.4 ± 0.8 kcals
same,"Relative body weight, % initial",[29],87.8 ± 1 % initial
same,"Cumulative food intake, kcals",[30],97.5 ± 7.5 kcals
same,"Daily food intake, kcals",[30],11.3 ± 1.2 kcals
same,"Relative body weight, % initial",[30],87.1 ± 0.9 % initial
same,"Cumulative food intake, kcals",[31],110.4 ± 8.4 kcals
same,"Daily food intake, kcals",[31],12.8 ± 1.4 kcals
same,"Relative body weight, % initial",[31],86.9 ± 0.9 % initial
same,"Cumulative food intake, kcals",[32],123.3 ± 9.2 kcals
same,"Daily food intake, kcals",[32],12.9 ± 0.9 kcals
same,"Relative body weight, % initial",[32],86.6 ± 1.1 % initial
same,"Cumulative food intake, kcals",[33],136.4 ± 9.8 kcals
same,"Daily food intake, kcals",[33],13.2 ± 0.7 kcals
same,"Relative body weight, % initial",[33],86.7 ± 1.3 % initial
same,"Cumulative food intake, kcals",[34],149.3 ± 10.7 kcals
same,"Daily food intake, kcals",[34],12.9 ± 1.1 kcals
same,"Relative body weight, % initial",[34],86.7 ± 1.3 % initial
same,"Cumulative food intake, kcals",[35],162.8 ± 11.1 kcals
same,"Daily food intake, kcals",[35],13.5 ± 0.6 kcals
same,"Relative body weight, % initial",[35],86 ± 1.2 % initial
same,"Cumulative food intake, kcals",[36],175.1 ± 11.7 kcals
same,"Daily food intake, kcals",[36],12.2 ± 0.7 kcals
same,"Relative body weight, % initial",[36],86 ± 1.3 % initial
same,"Cumulative food intake, kcals",[37],188.7 ± 12.2 kcals
same,"Daily food intake, kcals",[37],13.6 ± 0.8 kcals
same,"Relative body weight, % initial",[37],85.7 ± 1.2 % initial
same,"Cumulative food intake, kcals",[38],202.5 ± 13.1 kcals
same,"Daily food intake, kcals",[38],13.8 ± 1 kcals
same,"Relative body weight, % initial",[38],85.9 ± 1.2 % initial
same,"Cumulative food intake, kcals",[39],217 ± 13.9 kcals
same,"Daily food intake, kcals",[39],14.5 ± 0.9 kcals
same,"Relative body weight, % initial",[39],86.4 ± 1.3 % initial
same,"Cumulative food intake, kcals",[40],231.8 ± 13.6 kcals
same,"Daily food intake, kcals",[40],14.8 ± 0.8 kcals
same,"Relative body weight, % initial",[40],86.8 ± 1.3 % initial
same,"reduction in body weight, relative to initial body weight",1.5 μmol/kg once daily subcutaneously,13.2±1.3%
same,food intake (in words),once daily subcutaneous treatment,transient reduction in food intake that returned to baseline levels during the second week of treatment
